Measured values reported in paper PMC6001238, “Iterative Chemical Engineering of Vancomycin Leads to Novel Vancomycin Analogs With a High in Vitro Therapeutic Index” (Frontiers in Microbiology, 2018).
In brackets after ≈: the same amount, converted by molar mass. Where two headings read alike, the source gives them in different places.

Assays:
VE 149 (VanB) = assay: MIC, VanB-type VRE strain VE 149; format: cell-based, Enterococcus; details: Enterococcus; VE 149, VanB; read-out: MIC
Method: (§1) The minimum inhibitory concentration (MIC) was determined using the broth microdilution method according to the antimicrobial susceptibility testing standards of the clinical and laboratory standards institute ([Clinical and Laboratory Standards Institute [CLSI], 2012]). Ultrapure water and non-inoculated broth were used as controls. In one case, a final concentration of 10 μM vancomycin was included with the vancomycin analog or control antibiotic.

[1] = tested on: Murine leukemia (L1210) cells; assay: Cytostatic activity, L1210 cell proliferation; format: cell-based; details: Mus musculus, L1210, 48 h; mean ± SD of three experiments; highest concentration tested 250 µM; 2 days; read-out: Toxicity (IC50) L1210
Outline: (§2)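 Coulter counter cell counts after 37°C culture with compound; IC50 = concentration giving 50% growth inhibition vs negative control. Incubation: L1210 2 d, CEM 3 d, HeLa 4 d. Suspension density before mixing with an equal volume of dilution: 300,000–500,000 cells/mL.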

MRSA KS6 = assay: MIC, broth microdilution, MRSA KS6; format: cell-based, Staphylococcus aureus
Outline: (§3)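 MIC values come from broth microdilution run to CLSI susceptibility-testing standards. Ultrapure water and uninoculated broth served as controls. In one series, vancomycin at a final 10 μM was co-dosed with the analogue or comparator antibiotic.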

VE 82 (VanC1) = assay: MIC, VanC1-type VRE strain VE 82; format: cell-based, Enterococcus gallinarum; details: Enterococcus gallinarum; VE 82, VanC1; read-out: MIC
Method: as §1

VE 152 (VanB) = assay: MIC, VanB-type VRE strain VE 152; format: cell-based, Enterococcus; details: Enterococcus; VE 152, VanB; read-out: MIC
Method: as §1

S. aureus VISA/HIP5827 = assay: MIC, broth microdilution, vancomycin-intermediate S. aureus VISA HIP5827; format: cell-based, Staphylococcus aureus
Outline: as §3

S. aureus VRSA = assay: MIC, broth microdilution, vancomycin-resistant S. aureus (VRSA); format: cell-based, Staphylococcus aureus
Outline: as §3

MRSA [2] = assay: Minimum bactericidal concentration against MRSA; format: cell-based, Staphylococcus aureus
Method: Plates were incubated overnight at 37°C and colony growth was inspected.

E. faecalis VRE 29 = assay: MIC, broth microdilution, vancomycin-resistant E. faecalis VRE 29 (VanA); format: cell-based, Enterococcus faecalis
Outline: as §3

MRSA KS2 = assay: MIC, broth microdilution, MRSA KS2; format: cell-based, Staphylococcus aureus
Outline: as §3

[3] = tested on: L1210, CEM and HeLa cell lines; assay: Cytostatic activity, average or summary over L1210, CEM and HeLa; format: cell-based
Outline: as §2

E. faecalis VSE 1 = assay: MIC, broth microdilution, vancomycin-sensitive E. faecalis (VSE 1); format: cell-based, Enterococcus faecalis
Outline: as §3

[4] = tested on: S. aureus VSSA (ATCC 6538); assay: MIC, broth microdilution, vancomycin-sensitive S. aureus (VSSA/MSSA, ATCC 6538); format: cell-based, Staphylococcus aureus
Outline: as §3

33 clinical VRE isolates = assay: MIC against a set of 33 clinical VRE isolates (range, MIC50, TI); format: cell-based, Enterococcus faecalis
Method: as §1

VE 148 (VanB) = assay: MIC, VanB-type VRE strain VE 148; format: cell-based, Enterococcus; details: Enterococcus; VE 148, VanB; read-out: MIC
Method: as §1

E. faecalis VRE 37 = assay: MIC, broth microdilution, vancomycin-resistant E. faecalis VRE 37 (VanA); format: cell-based, Enterococcus faecalis
Outline: as §3

MRSA KS89 = assay: MIC, broth microdilution, MRSA KS89; format: cell-based, Staphylococcus aureus
Outline: as §3

MRSA [5] = assay: Time-kill curves, MRSA at 4x MIC; format: cell-based, Staphylococcus aureus; details: 1-24 h
Method: Time-kill curves were determined based on the CLSI guidelines ([Clinical and Laboratory Standards Institute [CLSI], 1999]). Single colonies grown overnight at 37°C were resuspended in Ca^2+-adjusted (0.05 mg/mL) Mueller Hinton broth up to an optical density (625 nm) of 0.08–00.10 (corresponding to the 0.5 McFarland standard), followed by a 10-fold dilution in the same broth. Subsequently, 0.2 mL inoculum was added to 1.7 mL Ca^2+-adjusted (0.05 mg/mL) Mueller Hinton broth, followed by addition of the antibacterial compound (0.1 mL). The final concentration of the antibacterial compound corresponded to the 4x MIC value for that compound. For the antibiotic-free control, the compound was replaced by an equal volume of ultrapure water. The final inoculum concentration was approximately 10^6 CFU/mL. The cultures were continuously shaken at 37°C. After 1, 2, 4, 6, 8, and 24 h, a 0.1 mL aliquot was removed, serially diluted in cold 0.9% w/v NaCl and plated on BHI (VRE) and LB (MRSA) agar plates. Plates were incubated overnight at 37°C and colonies were counted.

VE 150 (VanB) = assay: MIC, VanB-type VRE strain VE 150; format: cell-based, Enterococcus; details: Enterococcus; VE 150, VanB; read-out: MIC
Method: as §1

E. faecalis VRE 53 = assay: MIC, broth microdilution, vancomycin-resistant E. faecalis VRE 53 (VanA); format: cell-based, Enterococcus faecalis
Outline: as §3

[6] = tested on: 24 clinical MRSA isolates; assay: MIC against a set of 24 clinical MRSA isolates (range, MIC50, TI); format: cell-based, Staphylococcus aureus
Method: as §1

[7] = tested on: human T-lymphocyte (CEM) cells; assay: Cytostatic activity, CEM cell proliferation; format: cell-based; details: Homo sapiens, CCRF-CEM, 72 h; mean ± SD of three experiments; highest concentration tested 250 µM; 3 days; read-out: Toxicity (IC50) CEM
Outline: as §2

E. faecalis VRE 6 = assay: MIC, broth microdilution, vancomycin-resistant E. faecalis VRE 6 (VanA); format: cell-based, Enterococcus faecalis
Outline: as §3

[8] = tested on: human cervix carcinoma (HeLa) cells; assay: Cytostatic activity, HeLa cell proliferation; format: cell-based; details: Homo sapiens, HeLa, 96 h; mean ± SD of three experiments; highest concentration tested 250 µM; 4 days; read-out: Toxicity (IC50) HeLa
Outline: as §2

MRSA KS1 = assay: MIC, broth microdilution, MRSA KS1; format: cell-based, Staphylococcus aureus
Outline: as §3

VE 157 (VanB) = assay: MIC, VanB-type VRE strain VE 157; format: cell-based, Enterococcus; details: Enterococcus; VE 157, VanB; read-out: MIC
Method: as §1

For `CC(=O)NC[C@H]1CN(c2ccc(N3CCOCC3)c(F)c2)C(=O)O1` [Linezolid, reference compound], the MIC (VE 149 (VanB)) was 12.5 µM (≈ 4.22 µg/mL), the IC50 [1] was 157 ± 7 µM and the “MIC-fold improvement vs. vancomycin” value (MRSA KS6; MRSA KS6, ratio of MIC of vancomycin and MIC of analogue) was 0.1. It also gave an MIC (MRSA KS6; Staphylococcus aureus, MRSA) of 6.25 µM (≈ 2.11 µg/mL), an MIC (VE 82 (VanC1)) of 12.5 µM (≈ 4.22 µg/mL) and an MIC (VE 152 (VanB)) of 12.5 µM (≈ 4.22 µg/mL). For the same molecule, the MIC (S. aureus VISA/HIP5827; Staphylococcus aureus, VISA) was 3.13 µM (≈ 1.06 µg/mL), the “MIC-fold improvement vs. vancomycin” value (S. aureus VISA/HIP5827; VISA/HIP5827, ratio of MIC of vancomycin and MIC of analogue) was 2 and the MIC (S. aureus VRSA; Staphylococcus aureus VRSA) was 6.25 µM (≈ 2.11 µg/mL). For the same molecule, the “MIC-fold improvement vs. vancomycin” value (S. aureus VRSA; VRSA, ratio of MIC of vancomycin and MIC of analogue) was 16, the “MBC relative to MIC” value (MRSA [2]) was “more than four times higher than the corresponding MIC” and the MIC (E. faecalis VRE 29; Enterococcus faecalis, VRE) was 6.25 µM (≈ 2.11 µg/mL). For the same molecule, the “MIC-fold improvement vs. vancomycin” value (E. faecalis VRE 29; VRE 29, ratio of MIC of vancomycin and MIC of analogue) was 64, the “MIC-fold improvement vs. vancomycin” value (MRSA KS2; MRSA KS2, ratio of MIC of vancomycin and MIC of analogue) was 0.1 and the MIC (MRSA KS2; Staphylococcus aureus, MRSA) was 6.25 µM (≈ 2.11 µg/mL). For the same molecule, the IC50 ([3]; average IC50 used for TI in Table S5, >250 entered as 250, read-out: IC50) was 208 µM, the IC50 ([3]; average of L1210, CEM and HeLa, read-out: Toxicity (IC50) Average) was 208 µM and the MIC (E. faecalis VSE 1; VSE1, Enterococcus faecalis VSE 1 (vancomycin-sensitive), read-out: MIC) was over 3.13 µM. For the same molecule, the “MIC-fold improvement vs. vancomycin” value (E. faecalis VSE 1; VSE 1, ratio of MIC of vancomycin and MIC of analogue) was under 0.5, the MIC ([4]; ATCC6538, Staphylococcus aureus VSSA, read-out: MIC) was over 3.13 µM and the “MIC-fold improvement vs. vancomycin” value ([4]; VSSA, ratio of MIC of vancomycin and MIC of analogue) was under 0.2. The “MIC Range” value (33 clinical VRE isolates; 33 clinical VRE isolates) was 3.13 to 50 µM, the MIC50 (33 clinical VRE isolates; Enterococcus, median MIC, 33 clinical VRE isolates, read-out: MIC50) was 6.25 µM (≈ 2.11 µg/mL) and the “TI (IC50/MIC50)” value (33 clinical VRE isolates; in vitro therapeutic index, VRE) was 33. For the same molecule, the MIC (VE 148 (VanB)) was 12.5 µM (≈ 4.22 µg/mL), the MIC (E. faecalis VRE 37; Enterococcus faecalis, VRE) was 6.25 µM (≈ 2.11 µg/mL) and the “MIC-fold improvement vs. vancomycin” value (E. faecalis VRE 37; VRE 37, ratio of MIC of vancomycin and MIC of analogue) was 64. The “MIC-fold improvement vs. vancomycin” value (MRSA KS89; MRSA KS8 (head; KS89 in title), ratio of MIC of vancomycin and MIC of analogue) was 0.1, the MIC (MRSA KS89; Staphylococcus aureus, MRSA) was 6.25 µM (≈ 2.11 µg/mL) and the time-kill curve character (MRSA [5]) was “typical bacteriostatic time-kill curve”. The MIC (VE 150 (VanB)) was 12.5 µM (≈ 4.22 µg/mL), the MIC (E. faecalis VRE 53; Enterococcus faecalis, VRE) was 6.25 µM (≈ 2.11 µg/mL) and the “MIC-fold improvement vs. vancomycin” value (E. faecalis VRE 53; VRE 53, ratio of MIC of vancomycin and MIC of analogue) was 64. For the same molecule, the “MIC Range” value ([6]; 24 clinical MRSA isolates) was 6.25 to 25 µM, the MIC50 ([6]; Staphylococcus aureus, median MIC, 24 clinical MRSA isolates, read-out: MIC50) was 25 µM (≈ 8.43 µg/mL) and the “TI (IC50/MIC50)” value ([6]; in vitro therapeutic index, MRSA) was 8. For the same molecule, the IC50 [7] was over 250 µM, the MIC (E. faecalis VRE 6; Enterococcus faecalis VRE 6 (vancomycin-resistant), read-out: MIC) was 12.5 µM (≈ 4.22 µg/mL) and the “MIC-fold improvement vs. vancomycin” value (E. faecalis VRE 6; VRE 6, ratio of MIC of vancomycin and MIC of analogue) was 16. The IC50 [8] was 216 ± 48 µM, the “MIC-fold improvement vs. vancomycin” value (MRSA KS1; MRSA KS1, ratio of MIC of vancomycin and MIC of analogue) was 0.05 and the MIC (MRSA KS1; Staphylococcus aureus MRSA KS1, read-out: MIC) was 12.5 µM (≈ 4.22 µg/mL). It also gave an MIC (VE 157 (VanB)) of 12.5 µM (≈ 4.22 µg/mL).
